# Data from patent US20260248761A1, “COMPOSITIONS AND METHODS FOR TREATMENT OF PULMONARY HYPERTENSION” (EpicentRx, Inc., priority 2022, published 2026).
# Where “and” joins values, the source holds several entries; their conditions need not be identical. Equal values may be shown once. Read-outs that look alike come from different tables or passages of the source.
# How the values were obtained:
# male Wistar rats [1] = assay type: in vivo, rat
# Description: (§1) Male Wistar rats were kept in an isobaric hypoxic chamber with intermittent hypoxia (FiO2=10%) for (1) week (6 hours/day, 6 day/week). […] For administration, the RRx-001 (10 mg/kg) was mixed with blood and injected via the tail at the beginning of hypoxia exposure every day. […] Untreated control animals were not administered any agents and the SHAM (Control) group was not subjected to hypoxia.
# Mean aortic pressure (mAP) was recorded by an arterial catheter inserted via the carotid artery.
# male Wistar rats [2] = experiment: Echocardiograph: ejection fraction and fractional shortening, hypoxia PAH study; settings: RRx-001 5 mg/kg or Bosentan 50 mg/kg mixed with blood; for ejection fraction, lower value / ejection fraction, median value / ejection fraction, upper value: FIG. 3A; for ejection fraction, lower value: PAH group 49%, control 65%; for ejection fraction, median value: PAH group 51%, control 68%; for ejection fraction, median value / fractional shortening, median value: RRx-001 p<0.05 vs PAH; for ejection fraction, upper value: PAH group 59%, control 72%; for fractional shortening, median value / fractional shortening, upper value: FIG. 3B; for fractional shortening, median value: PAH group 31%, control 42%; for fractional shortening, upper value: PAH group 33%, control 44%
# Description: The male Wistar rats exposed to hypoxia were then divided into 3 groups for the study. A first group of 6 male Wistar rats were untreated and labeled “PAH”. A second group of 6 male Wistar rats were treated with the RRx-001. A third group of 6 male Wistar rats were treated with Bosentan, which is a drug that is used to treat PAH.
# Treatment for the second group of male Wistar rats comprised mixing 5 mg/kg RRx-001 with blood and administering the mixture via tail injection before the hypoxia exposure. Similarly, treatment for the third group of male Wistar rats comprised mixing 50 mg/kg Bosentan with blood and administering the mixture daily via tail injection before the hypoxia exposure.
# male Wistar rats [3] = experiment: Wet weight ratio (Fulton index) RV/(LV+SP), right ventricular hypertrophy, hypoxia PAH study; assay type: in vivo, rat; settings: FIG. 2, RRx-001 5 mg/kg or Bosentan 50 mg/kg mixed with blood; for wet weight ratio RV/(LV+SP), lower value: PAH group 0.38, control 0.28; for wet weight ratio RV/(LV+SP), median value: PAH group 0.43, control 0.31; for wet weight ratio RV/(LV+SP), upper value: PAH group 0.44, control 0.33
# Text: A distribution of the collected data is plotted on the graph for the 4 groups of male Wistar rats: the control group, the PAH group, the RRx-001 group, and the Bosentan group. The calculated wet weight ratio is intended to be an indicator of right ventricular hypertrophy.
# To measure the wet weight ratio, the heart was excised, the atria were removed, and the wall of the right ventrical (RV) was separated from the heart. Tissues were blotted and weighed. […] The elevated pulmonary arterial pressure was paralleled by an increase in systolic pressure, and right ventricular hypertrophy according to the Fulton index.
# male Wistar rats [4] = experiment: Mean pulmonary artery pressure (mPAP) by catheter, intermittent hypoxia PAH study; assay type: in vivo, rat; settings: FIG. 1A, intermittent hypoxia FiO2 10%, RRx-001 5 mg/kg or Bosentan 50 mg/kg mixed with blood, tail injection; for mPAP, lower value of group distribution: PAH group 27, control 16; for mPAP, median value of group distribution: PAH group 30, control 17, RRx-001 p<0.05 vs PAH; for mPAP, upper value of group distribution: PAH group 33, control 20
# Description: (§2) The study exposed 18 male Wistar rats to an isobaric chamber with intermittent hypoxia where the fraction of inspired oxygen (FiO2) is 10%.
# The mPAP was recorded in FIG. 1A using a catheter introduced into the right jugular vein of the male Wistar rats and passed across the tricuspid valve and a right ventricle into the pulmonary artery. A distribution of the mPAP results for the various groups is plotted in FIG. 1A.
# male Wistar rats [5] = experiment: Mean aortic pressure (mAP) by arterial catheter, intermittent hypoxia PAH study; assay type: in vivo, rat; settings: FIG. 1B, RRx-001 5 mg/kg or Bosentan 50 mg/kg mixed with blood; for mAP, lower value of group distribution: PAH group 117, control 98; for mAP, median value of group distribution: PAH group 137, control 113, RRx-001 p<0.05 vs PAH; for mAP, upper value of group distribution: PAH group 147, control 116
# Description: as §2
# The second graph, FIG. 1B, is a distribution of mean aortic pressure (mAP) that was recorded by an arterial catheter inserted via the carotid artery of the male Wistar rats. The PAH group distribution has an upper value for mAP of approximately 147 mmHg, a median value for the mAP of approximately 137 mmHg, and a lower value for the mAP of approximately 117 mmHg. The RRx-001 group has an upper value for the mAP of approximately 134 mmHg, a median value for the mAP of approximately 121 mmHg, and a lower value for the mAP of approximately 116 mmHg. The p value as determined for the mAP results between the PAH group and the RRx-001 group is less than 0.05.
# male Wistar rats [6] = assay type: in vivo, rat; settings: FIG. 5A, hypoxia 1 week
# Description: as §1
# Mean pulmonary pressure (mPAP) was recorded using a catheter introduced in the right jugular vein and passed across the tricuspid valve and right ventricle into the pulmonary artery.
# male Wistar rats [7] = experiment: Lung morphological changes: relative medial wall thickness and area, hypoxia PAH study; assay type: in vivo, rat; settings: RRx-001 5 mg/kg or Bosentan 50 mg/kg mixed with blood; for medial wall thickness relative to external diameter, lower value / medial wall thickness relative to external diameter, median value / medial wall thickness relative to external diameter, upper value: FIG. 4A; for medial wall thickness relative to external diameter, lower value: PAH group 0.13, control 0.07; for medial wall thickness relative to external diameter, median value: PAH group 0.14, control 0.07; for medial wall thickness relative to external diameter, upper value: PAH group 0.15, control 0.08; for medial wall area relative to lumen area, lower value / medial wall area relative to lumen area, median value / medial wall area relative to lumen area, upper value: FIG. 4B; for medial wall area relative to lumen area, lower value: PAH group 0.16, control 0.11; for medial wall area relative to lumen area, median value: PAH group 0.17, control 0.12; for medial wall area relative to lumen area, upper value: PAH group 0.21, control 0.14
# Description: To collect the data, male Wistar rats lungs were removed and fixed in paraformaldehyde, then dehydrated and embedded in paraffin for sectioning. The relative medial thickness and relative medial areas were calculated from vessels showing a clearly defined external and internal elastic lamina.
# male Wistar rats [8] = assay type: in vivo, rat; remark: listed apart in the source
# Description: To measure the wet weight ratio, the heart was excised, the atria were removed, and the wall of the right ventrical (RV) was separated from the heart. Tissues were blotted and weighed.
# as §1
# The wet weight ratio is an indicator of right ventricle hypertrophy. The wet weight ratios were measured according to the same procedure as set out in the description for FIG. 2.
# Wistar rats = settings: FIG. 9, blood
# male Wistar rats [9] = experiment: H&E staining of the pulmonary arteriole (pulmonary vascular remodeling); assay type: in vivo, rat; settings: FIG. 10, hypoxia induced PAH rats
# Text: FIG. 10 depicts the effect of the RRx-001 and Bosentan on pulmonary vascular remodeling. Specifically, FIG. 10 depicts images showing H&E staining in the pulmonary arteriole.
Compound,"ejection fraction, lower value (male Wistar rats [2])","ejection fraction, median value (male Wistar rats [2])","ejection fraction, upper value (male Wistar rats [2])","fractional shortening, median value (male Wistar rats [2])","fractional shortening, upper value (male Wistar rats [2])","wet weight ratio RV/(LV+SP), lower value (male Wistar rats [3])","wet weight ratio RV/(LV+SP), median value (male Wistar rats [3])","wet weight ratio RV/(LV+SP), upper value (male Wistar rats [3])","mPAP, lower value of group distribution (male Wistar rats [4])","mPAP, median value of group distribution (male Wistar rats [4])","mPAP, upper value of group distribution (male Wistar rats [4])","mAP, lower value of group distribution (male Wistar rats [5])","mAP, median value of group distribution (male Wistar rats [5])","mAP, upper value of group distribution (male Wistar rats [5])","medial wall thickness relative to external diameter, lower value (male Wistar rats [7])","medial wall thickness relative to external diameter, median value (male Wistar rats [7])","medial wall thickness relative to external diameter, upper value (male Wistar rats [7])","medial wall area relative to lumen area, lower value (male Wistar rats [7])","medial wall area relative to lumen area, median value (male Wistar rats [7])","medial wall area relative to lumen area, upper value (male Wistar rats [7])",also measured
"O=NO [nitrite, reference compound]",–,–,–,–,–,–,–,–,–,–,–,–,–,–,–,–,–,–,–,–,"effect of nitrite on mAP versus mPAP (male Wistar rats [1]; rat, in vivo): systemic effect on mAP but less significant on mPAP; median mAP (male Wistar rats [1]; rat, in vivo): ~122 mmHg and ~126 mmHg and ~120 mmHg"
"O=C(CBr)N1CC([N+](=O)[O-])([N+](=O)[O-])C1 [RRx-001, 2-bromo-1-(3,3-dinitroazetidin-1-yl) ethan-1-one]",approximately 60%,approximately 66%,approximately 69%,approximately 38%,approximately 39%,approximately 0.34,approximately 0.35,approximately 0.39,approximately 23 mmHg,approximately 26 mmHg,approximately 28 mmHg,approximately 116 mmHg,approximately 121 mmHg,approximately 134 mmHg,approximately 0.07,approximately 0.08,approximately 0.09,approximately 0.14,approximately 0.14,approximately 0.16,"median mAP (male Wistar rats [1]; FIG. 5B, hypoxia 1 week, RRx-001 10 mg/kg + nitrite 10 mg/kg s.c.): ~115 mmHg; median mAP (male Wistar rats [1]; FIG. 5B, hypoxia 1 week, RRx-001 10 mg/kg + nitrite 20 mg/kg s.c.): ~107 mmHg; median mAP (male Wistar rats [1]; FIG. 5B, hypoxia 1 week, RRx-001 10 mg/kg + nitrite 40 mg/kg s.c.): ~102 mmHg; median mAP (male Wistar rats [1]; FIG. 5B, hypoxia 1 week, RRx-001 10 mg/kg mixed with blood daily, nitrite 0, saline/0 nitrite 137, control 124, SHAM 109): approximately 116 mmHg; median mPAP (male Wistar rats [6]; RRx-001 10 mg/kg + nitrite (NaNO2) 10 mg/kg s.c.): ~18 mmHg; median mPAP (male Wistar rats [6]; RRx-001 10 mg/kg + nitrite (NaNO2) 20 mg/kg s.c.): ~16 mmHg; median mPAP (male Wistar rats [6]; RRx-001 10 mg/kg + nitrite (NaNO2) 40 mg/kg s.c.): ~15 mmHg; median mPAP (male Wistar rats [6]; RRx-001 10 mg/kg mixed with blood daily, nitrite 0, saline/0 nitrite 23, control 20, SHAM 17): approximately 17 mmHg; median wet weight ratio RV/(LV+SP) (male Wistar rats [8]; FIG. 7/8, hypoxia 1 week, RRx-001 10 mg/kg + nitrite 10 mg/kg): approximately 0.40 mg/mg; median wet weight ratio RV/(LV+SP) (male Wistar rats [8]; FIG. 7/8, hypoxia 1 week, RRx-001 10 mg/kg + nitrite 20 mg/kg): ~0.35 mg/mg; median wet weight ratio RV/(LV+SP) (male Wistar rats [8]; FIG. 7/8, hypoxia 1 week, RRx-001 10 mg/kg + nitrite 40 mg/kg): ~0.32 mg/mg; effect on right ventricle hypertrophy (wet weight ratio) (male Wistar rats [8]; FIG. 7/8, hypoxia study with nitrite, result in words): has an effect on right ventricle hypertrophy; median wet weight ratio RV/(LV+SP) (male Wistar rats [8]; rat, in vivo, 10 mg/kg): approximately 0.37 mg/mg; median metHb concentration (Wistar rats; RRx-001 10 mg/kg + nitrite 10 mg/kg): ~3%; median metHb concentration (Wistar rats; RRx-001 10 mg/kg + nitrite 20 mg/kg): ~7%; median metHb concentration (Wistar rats; RRx-001 10 mg/kg + nitrite 40 mg/kg): ~12%; median metHb concentration (Wistar rats; RRx-001 10 mg/kg, nitrite 0, saline/0 nitrite and controls 1%): approximately 1%; increases in pulmonary vascular wall thickness and muscularization of the pulmonary arteriole (male Wistar rats [9]): inhibited"
"COc1ccccc1Oc1c(NS(=O)(=O)c2ccc(C(C)(C)C)cc2)nc(-c2ncccn2)nc1OCCO [Bosentan, reference compound]",approximately 52%,approximately 59%,approximately 63%,approximately 38%,approximately 42%,approximately 0.32,approximately 0.35,approximately 0.39,approximately 21 mmHg,approximately 22 mmHg,approximately 24 mmHg,approximately 108 mmHg,approximately 120 mmHg,approximately 126 mmHg,approximately 0.09,approximately 0.10,approximately 0.12,approximately 0.14,approximately 0.16,approximately 0.17,–
